{"source": "patent US9737552B2", "about": "“Treatment of cognitive impairment in a subject with a neurological autoimmune disease” (The Johns Hopkins University, priority 2010, dated 2017)", "key": {"EAE mice [1]": {"tested_on": "EAE mice", "assay": "Barnes maze testing in EAE mice", "assay_type": "in vivo", "experimental": "To measure cognitive function in EAE mice, Barnes maze testing was conducted using the immunized mice, beginning approximately 4 weeks post-immunization. […] Animals were trained on the Barnes maze (AccuScan Instruments, Columbus, Ohio) for 4 trials per day (inter-trial interval >30 minutes) for 4 consecutive days. Briefly, mice were placed in the center of the maze platform under an opaque enclosed 3″×5″× container. After 15 seconds the container was removed and the mice were free to move in the maze. A target box was placed under 1 of the 40 holes around the maze perimeter, and the location of the target box, along with the location of 4 equally spaced polarizing visual cues and one lamp, remained the same throughout all trials. Mice were given up to 3 minutes to locate and enter the target box, and were gently guided into the target box if it was not found within the 3 minute limit. Following entry into the target box, the box was covered and the mouse remained in the box for 30 seconds before transfer to a holding cage. Paths were recorded and latency to the target hole, path efficiency, speed, and directional times were calculated using ANY-maze software (Stoelting, Wood Dale, Ill.)."}, "EAE mice [2]": {"tested_on": "EAE mice", "assay": "EAE disease score in MOG35-55 immunized mice", "assay_type": "in vivo", "conditions": "100 mg/kg daily i.p. from immunization until sacrifice; vs Control mice", "method": "The effects of GCPII inhibition were tested on an animal model of multiple sclerosis (experimental autoimmune encephalomyelitis, or “EAE”). To induce EAE, mice were given two 50 μL subcutaneous flank injections of myelin oligodendrocyte glycoprotein 35-55 peptide fragment (MOG35-55) dissolved in 50 μL PBS emulsified in 50 μL IFA supplemented with 400 μg M. tuberculosis H37Ra, at a final concentration of 100 μg MOG35-55 per 100 μL total volume. At the time of MOG immunization and 2 days later, all EAE mice were administered intraperitoneal injections of 300 ng pertussis toxin in 100 μL PBS. Immunized mice were treated with either 2-PMPA or a vehicle control for the duration of the experiment. Vehicle (50 mM HEPES buffer) or 2-PMPA (100 mg/kg in vehicle at a pH of 7.4) was delivered daily via 0.1 mL intraperitoneal injections from the time of EAE immunization until sacrifice."}, "EAE mice [3]": {"tested_on": "EAE mice", "experimental": "A separate cohort of 2-PMPA and Control EAE mice (n=6-7) were tested on the elevated plus maze 27 days after disease induction. Mice were placed in the center of the maze and given 5 minutes to freely explore the maze. Time spent in open and closed arms of the maze were tracked using ANY-maze software (Stoelting, Wood Dale, Ill.)."}, "EAE mice [4]": {"tested_on": "EAE mice", "assay": "Fear conditioning test in EAE mice", "assay_type": "in vivo", "experimental": "To measure fear memory and amygdala function in EAE mice, fear conditioning tests were performed. Following the Barnes maze testing, animals were given 1-2 weeks rest then subjected to fear conditioning. Briefly, animals were placed in a fear conditioning chamber for 240 seconds on 3 consecutive days. On day 1, a 2000 Hz tone was played for 28 seconds (seconds 180-208), immediately followed by a 2 second scrambled footshock (seconds 208-210). On day 2, animals were placed back in the same testing environment, but neither sound nor shock was administered. On days 3 and 5, mice were placed in a novel wooden box inside the fear conditioning chamber, and a 2000 Hz tone was played for 120 seconds (seconds 121-240). The duration of freezing behavior on each day was measured using FreezeScan software (Clever Sys Inc., Reston, Va.)."}, "[5]": {"assay": "Mass spectrometry of 2-PMPA concentration in post-mortem brains of EAE mice", "assay_type": "in vivo", "conditions": "mouse, ip, Mean±SEM, 100 mg/kg daily i.p., sacrifice 50 days after immunization", "experimental": "(§1) To determine whether GCPII inhibition altered the levels of the enzyme's substrate (NAAG) or product (NAA), mass spectrometry was conducted in post-mortem brains of EAE mice either treated with 2-PMPA or a vehicle control. Animals were sacrificed by cervical dislocation 50 days after EAE immunization. Hippocampus, frontal lobe, and cerebellum structures were dissected, and NAA, NAAG, and 2-PMPA concentrations were measured via mass spectrometry. Briefly, NAAG and NAA in brain tissue homogenates were separated on a Waters Atlantis ODS column. NAA, NAAG, and the internal standard were monitored by tandem mass spectrometry with electrospray negative ionization. Linear calibration curves were generated over the range of 5-5000 ng/mL and converted to μg/g. For determination of 2-PMPA, separations were achieved on a Waters XTerra MS C18 column. 2-PMPA and the internal standard were monitored by tandem mass spectrometry with electrospray negative ionization. Linear calibration curves were generated over the 1-100 ng/mL range and converted to μg/g."}, "GCPII": {"tested_on": "GCPII", "assay": "Mass spectrometry of NAA and NAAG in post-mortem brains of EAE mice", "assay_type": "in vivo", "conditions": "Mean±SEM, 50 days after EAE immunization", "experimental": "as §1"}}, "note": "Read-outs that look alike come from different tables or passages of the source."}
{"molecule": "O=C(O)CCC(CP(=O)(O)O)C(=O)O", "note": "(centres unmarked) [2-PMPA, 2-(phosphonomethyl)pentanedioic acid]", "values": [{"measurement": "Primary latency, total latency and path efficiency on the first two days of Barnes maze testing", "setting": "EAE mice [1]; 100 mg/kg daily i.p., vs vehicle", "result": "equal between groups"}, {"measurement": "Path efficiency, first trial of day 4 compared to baseline (day 1, trial 1)", "setting": "EAE mice [1]; Mean±SEM, 100 mg/kg daily i.p., p=0.0029 vs Control", "result": "−0.7276±0.0295"}, {"measurement": "Primary latency, first trial of day 4 compared to baseline (day 1, trial 1)", "setting": "EAE mice [1]; Mean±SEM, 100 mg/kg daily i.p., p=0.0072 vs Control", "result": "167.4±1.187"}, {"measurement": "Total latency, first trial of day 4 compared to baseline (day 1, trial 1)", "setting": "EAE mice [1]; Mean±SEM, 100 mg/kg daily i.p., p=0.0171 vs Control", "result": "167.4±1.187"}, {"measurement": "Path efficiency, back-to-back trials on consecutive days (long-term memory)", "setting": "EAE mice [1]; Mean±SEM, e.g. trial 4 of day 3 vs. trial 1 of day 4, p=0.020 vs controls", "result": "−0.1377±0.0937"}, {"measurement": "Total latency, back-to-back trials on consecutive days (long-term memory)", "setting": "EAE mice [1]; Mean±SEM, e.g. trial 4 of day 3 vs. trial 1 of day 4, p=0.021 vs controls", "result": "13.14±7.69"}, {"measurement": "Maximum speed in the maze", "setting": "EAE mice [1]; vs control EAE group", "result": "No differences"}, {"measurement": "Disease severity and progression, as measured by EAE disease scores", "setting": "EAE mice [2]", "result": "did not differ"}, {"measurement": "Time spent in the closed arms", "setting": "EAE mice [3]", "result": "224.2±10.07"}, {"measurement": "Time spent in the open arms", "setting": "EAE mice [3]", "result": "34.10±9.22"}, {"measurement": "Baseline freezing on Day 1", "setting": "EAE mice [4]; Day 1", "result": "< 20", "unit": "%"}, {"measurement": "Cued freezing behavior on Day 3", "setting": "EAE mice [4]; Day 3, vs control", "result": "No differences"}, {"measurement": "Cued freezing in response to the 120 second tone on Day 5", "setting": "EAE mice [4]; Day 5, specifically in the last 60 seconds, vs control", "result": "increased cued freezing"}, {"measurement": "Contextual freezing on Day 2", "setting": "EAE mice [4]; Mean±SEM, Day 2, % time freezing (FIG. 5 legend)", "result": "50.49±4.18"}, {"measurement": "concentration at 50 days after EAE immunization", "setting": "[5]; cerebellum, read-out: 2-PMPA in the cerebellum", "result": "832 ± 56", "unit": "ng/g"}, {"measurement": "concentration at 50 days after EAE immunization", "setting": "[5]; frontal cortex, read-out: 2-PMPA in the frontal cortex", "result": "1190 ± 222", "unit": "ng/g"}, {"measurement": "concentration at 50 days after EAE immunization", "setting": "[5]; hippocampus, read-out: 2-PMPA in the hippocampus", "result": "835 ± 264", "unit": "ng/g"}, {"measurement": "NAAG concentration in the frontal cortex", "setting": "GCPII; p=0.0002 vs control", "result": "32.91 ± 0.93", "unit": "µg/g"}, {"measurement": "NAAG concentration in the cerebellum", "setting": "GCPII; p=0.0655 vs control", "result": "102.4 ± 2.3", "unit": "µg/g"}, {"measurement": "NAA in the hippocampus", "setting": "GCPII; p=0.2895 vs control", "result": "985.0 ± 48.12", "unit": "µg/g"}, {"measurement": "NAA in the frontal cortex", "setting": "GCPII; p=0.3035 vs control", "result": "1134 ± 45.65", "unit": "µg/g"}, {"measurement": "NAA in the cerebellum", "setting": "GCPII; p=0.3053 vs control", "result": "899.3 ± 19.66", "unit": "µg/g"}, {"measurement": "NAAG concentration in the hippocampus", "setting": "GCPII; p=0.8575 vs control", "result": "54.98 ± 2.037", "unit": "µg/g"}]}
